Values belong to the compound of their own block, whether it stands above or below them.
System: 519858-162-T-J1-PDC complex spheroid viability
Assay: Anticancer human tumor 519858-162-T-J1-PDC patient-derived colon adenocarcinoma cell line growth inhibition [GQUAD]
Conditions: for IC50: curve of first compound; for viability, T/C: stronger effect = lower value
How it was run: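 Multi-cell-type spheroids of tumor cells with HUVEC and mesenchymal stem cells, treated with drug combinations. Concentrations descend in half-log steps from near clinical Cmax, or from 10 microM where Cmax is unknown; viability read-out.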

[1] = second compound 0.0316 µM, first compound 0.0316 µM
[2] = second compound 0.0316 µM, first compound 0.1 µM
[3] = second compound 0.0316 µM, first compound 0.316 µM
[4] = second compound 0.0316 µM, first compound 1 µM
[5] = second compound 0.0316 µM, first compound 3.16 µM
[6] = second compound 0.0316 µM, first compound 10 µM
[7] = second compound 0.1 µM, first compound 0.0316 µM
[8] = second compound 0.1 µM, first compound 0.1 µM
[9] = second compound 0.1 µM, first compound 0.316 µM
[10] = second compound 0.1 µM, first compound 1 µM
[11] = second compound 0.1 µM, first compound 3.16 µM
[12] = second compound 0.1 µM, first compound 10 µM
[13] = second compound 0.316 µM, first compound 0.0316 µM
[14] = second compound 0.316 µM, first compound 0.1 µM
[15] = second compound 0.316 µM, first compound 0.316 µM
[16] = second compound 0.316 µM, first compound 1 µM
[17] = second compound 0.316 µM, first compound 3.16 µM
[18] = second compound 0.316 µM, first compound 10 µM
[19] = second compound 1 µM, first compound 0.0316 µM
[20] = second compound 1 µM, first compound 0.1 µM
[21] = second compound 1 µM, first compound 0.316 µM
[22] = second compound 1 µM, first compound 1 µM
[23] = second compound 1 µM, first compound 3.16 µM
[24] = second compound 1 µM, first compound 10 µM
[25] = second compound 3.16 µM, first compound 0.0316 µM
[26] = second compound 3.16 µM, first compound 0.1 µM
[27] = second compound 3.16 µM, first compound 0.316 µM
[28] = second compound 3.16 µM, first compound 1 µM
[29] = second compound 3.16 µM, first compound 3.16 µM
[30] = second compound 3.16 µM, first compound 10 µM
[31] = second compound 10 µM, first compound 0.0316 µM
[32] = second compound 10 µM, first compound 0.1 µM
[33] = second compound 10 µM, first compound 0.316 µM
[34] = second compound 10 µM, first compound 1 µM
[35] = second compound 10 µM, first compound 3.16 µM
[36] = second compound 10 µM, first compound 10 µM
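Note: spheroids exposed to compounds for 7 days.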
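Throughout, for viability, T/C: 100% = DMSO vehicle control viability.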

IC50 (second compound 0.0316 µM): > 10000 nM
IC50 (second compound 0.1 µM): > 10000 nM
IC50 (second compound 0.316 µM): > 10000 nM
IC50 (second compound 1 µM): 2440 nM
IC50 (second compound 3.16 µM): < 31.6 nM
IC50 (second compound 10 µM): 72.9 nM
Structure (SMILES): C=CC(=O)N1CCN(c2nc(=O)n(-c3c(C)ccnc3C(C)C)c3nc(-c4c(O)cccc4F)c(F)cc23)C(C)C1 (stereo unspecified) + Cc1cnc(CNC(=O)c2c(=O)c3ccc(N4CCCN(C)CC4)nc3n3c2sc2ccccc23)cn1
viability, T/C [1]: 74.2%
viability, T/C [2]: 91.8%
viability, T/C [3]: 77.1%
viability, T/C [4]: 89.3%
viability, T/C [5]: 46.3%
viability, T/C [6]: 103%
viability, T/C [7]: 97%
viability, T/C [8]: 70.4%
viability, T/C [9]: 109%
viability, T/C [10]: 92.3%
viability, T/C [11]: 76.3%
viability, T/C [12]: 82.9%
viability, T/C [13]: 54.2%
viability, T/C [14]: 53%
viability, T/C [15]: 55.9%
viability, T/C [16]: 57%
viability, T/C [17]: 65.2%
viability, T/C [18]: 76.6%
viability, T/C [19]: 69.1%
viability, T/C [20]: 56.3%
viability, T/C [21]: 68.2%
viability, T/C [22]: 56.9%
viability, T/C [23]: 40.3%
viability, T/C [24]: 45.5%
viability, T/C [25]: 46.5%
viability, T/C [26]: 49.6%
viability, T/C [27]: 41.8%
viability, T/C [28]: 55.8%
viability, T/C [29]: 56%
viability, T/C [30]: 42.9%
viability, T/C [31]: 60%
viability, T/C [32]: 46.4%
viability, T/C [33]: 42.8%
viability, T/C [34]: 48.2%
viability, T/C [35]: 48.7%
viability, T/C [36]: 42.8%

Structure (SMILES): CC[C@@]1(O)C(=O)OCc2c1cc1n(c2=O)Cc2cc3c(CN(C)C)c(O)ccc3nc2-1 + Cc1[nH]c2ccc(F)cc2c1-c1nc2c3cccnc3c3ncccc3c2[nH]1
IC50 (second compound 0.0316 µM): > 316 nM
IC50 (second compound 0.1 µM): > 316 nM
IC50 (second compound 0.316 µM): > 316 nM
IC50 (second compound 1 µM): > 316 nM
IC50 (second compound 3.16 µM): 0.999 nM
IC50 (second compound 10 µM): > 316 nM
viability, T/C (second compound 0.0316 µM, first compound 0.000999 µM): 119%
viability, T/C (second compound 0.0316 µM, first compound 0.00316 µM): 106%
viability, T/C (second compound 0.0316 µM, first compound 0.00999 µM): 103%
viability, T/C [1]: 76.5%
viability, T/C (second compound 0.0316 µM, first compound 0.0999 µM): 72.1%
viability, T/C [3]: 88.9%
viability, T/C (second compound 0.1 µM, first compound 0.000999 µM): 86%
viability, T/C (second compound 0.1 µM, first compound 0.00316 µM): 90.9%
viability, T/C (second compound 0.1 µM, first compound 0.00999 µM): 94.3%
viability, T/C [7]: 88.9%
viability, T/C (second compound 0.1 µM, first compound 0.0999 µM): 73.2%
viability, T/C [9]: 75.5%
viability, T/C (second compound 0.316 µM, first compound 0.000999 µM): 58.7%
viability, T/C (second compound 0.316 µM, first compound 0.00316 µM): 97.1%
viability, T/C (second compound 0.316 µM, first compound 0.00999 µM): 99.3%
viability, T/C [13]: 93.8%
viability, T/C (second compound 0.316 µM, first compound 0.0999 µM): 97.2%
viability, T/C [15]: 69.4%
viability, T/C (second compound 1 µM, first compound 0.000999 µM): 86%
viability, T/C (second compound 1 µM, first compound 0.00316 µM): 60.9%
viability, T/C (second compound 1 µM, first compound 0.00999 µM): 85.1%
viability, T/C [19]: 104%
viability, T/C (second compound 1 µM, first compound 0.0999 µM): 69.7%
viability, T/C [21]: 75.9%
viability, T/C (second compound 3.16 µM, first compound 0.000999 µM): 56.4%
viability, T/C (second compound 3.16 µM, first compound 0.00316 µM): 55.6%
viability, T/C (second compound 3.16 µM, first compound 0.00999 µM): 46.5%
viability, T/C [25]: 48.6%
viability, T/C (second compound 3.16 µM, first compound 0.0999 µM): 78.1%
viability, T/C [27]: 77.1%
viability, T/C (second compound 10 µM, first compound 0.000999 µM): 60%
viability, T/C (second compound 10 µM, first compound 0.00316 µM): 58.3%
viability, T/C (second compound 10 µM, first compound 0.00999 µM): 50.7%
viability, T/C [31]: 60.9%
viability, T/C (second compound 10 µM, first compound 0.0999 µM): 85.3%
viability, T/C [33]: 60%

IC50 (second compound 0.0316 µM): > 10000 nM
IC50 (second compound 0.1 µM): > 10000 nM
IC50 (second compound 0.316 µM): 9620 nM
IC50 (second compound 1 µM): 3610 nM
IC50 (second compound 3.16 µM): 1270 nM
IC50 (second compound 10 µM): < 31.6 nM
Structure (SMILES): C#Cc1c(F)ccc2cc(O)cc(-c3ncc4c(N5CC6CCC(C5)N6)nc(OCC56CCCN5CC(F)C6)nc4c3F)c12 (stereo unspecified) + Cc1cnc(CNC(=O)c2c(=O)c3ccc(N4CCCN(C)CC4)nc3n3c2sc2ccccc23)cn1
viability, T/C [1]: 71.2%
viability, T/C [2]: 81.3%
viability, T/C [3]: 83.4%
viability, T/C [4]: 104%
viability, T/C [5]: 78.2%
viability, T/C [6]: 73.9%
viability, T/C [7]: 78.8%
viability, T/C [8]: 89%
viability, T/C [9]: 61.9%
viability, T/C [10]: 84.2%
viability, T/C [11]: 70.7%
viability, T/C [12]: 92%
viability, T/C [13]: 65%
viability, T/C [14]: 88%
viability, T/C [15]: 73.3%
viability, T/C [16]: 66.6%
viability, T/C [17]: 83.1%
viability, T/C [18]: 49.2%
viability, T/C [19]: 70.1%
viability, T/C [20]: 56.7%
viability, T/C [21]: 63.5%
viability, T/C [22]: 55.9%
viability, T/C [23]: 48.8%
viability, T/C [24]: 46.4%
viability, T/C [25]: 46.6%
viability, T/C [26]: 63.5%
viability, T/C [27]: 53.4%
viability, T/C [28]: 53.1%
viability, T/C [29]: 34.5%
viability, T/C [30]: 42%
viability, T/C [31]: 32.5%
viability, T/C [32]: 55.2%
viability, T/C [33]: 48.4%
viability, T/C [34]: 53.4%
viability, T/C [35]: 52.4%
viability, T/C [36]: 41.7%

From PubChem BioAssay AID2060507 (Molecular Pharmacology Branch, DTP, NCI, 2025)
